# Assay results published in patent US10159725B2, “Composition of tumor-associated peptides and related anti-cancer vaccine for the treatment of gastric cancer and other cancers” (priority 2010, dated 2018).
# Tests used:
# CD8+ T cells = experiment: In vitro priming of CD8+ T cells with pMHC/anti-CD28 coated beads, multimer readout (in vitro immunogenicity); type: cell-based, human; conditions: healthy HLA-A*24 donors, three stimulations; for Positive wells/wells tested [%]: at least 24 wells evaluable per peptide; for Positive donors/donors tested [%]: at least two donors evaluable per peptide
# Method: In order to perform in vitro stimulations by artificial antigen presenting cells (aAPC) loaded with peptide-MHC complex (pMHC) and anti-CD28 antibody, we first isolated CD8 T cells from fresh HLA-A*24 leukapheresis products of healthy donors obtained from the Blood Bank Tuebingen.
# Isolation of CD8+ lymphocytes was performed by positive selection using CD8 MicroBeads (Miltenyi Biotec, Bergisch-Gladbach, Germany).
# Stimulations were initiated in 96-well plates by co-incubating 1×10^6 CD8+ T cells with 2×10^5 washed coated beads in 200 μl TCM supplemented with 5 ng/ml IL-12 (PromoCell) for 3-4 days at 37° C. Half of the medium was then exchanged by fresh TCM supplemented with 80 U/ml IL-2 and incubating was continued for 3-4 days at 37° C. This stimulation cycle was performed for a total of three times. […] For analysis, a BD LSRII SORP cytometer equipped with appropriate lasers and filters was used. Peptide specific cells were calculated as percentage of total CD8+ cells. Evaluation of multimeric analysis was done using the FLOWJO software (Tree Star, Oregon, USA). In vitro priming of specific multimer+ CD8+ lymphocytes was detected by appropriate gating and by comparing to negative control stimulations.
# [1] = system: HLA-DR broad antigens (HLA-DR1 to DR7); experiment: ProImmune REVEAL MHC:peptide in vitro binding assay; parameters: species or system human; conditions: relative to pass/fail control
# Method: The ProImmune REVEAL™ technology employs in vitro HLA-DR assembly assays to determine the on-rates for the MHC:peptide complex as one major determinant of the binding constant of individual peptides. The assay was performed by ProImmune (Oxford, UK). At a fixed time point, the amount of intact MHC:peptide complexes is measured and compared with the amount for a pass/fail control (relative weak binder). A strong, promiscuous HLA-DR binder is included as positive control. Values indicate amount of binding for the individual peptides and HLA-DR molecules relative to the pass/fail control.
# In this assay, binding was compared to that of a pass/fail control binder, and to a positive control peptide for each HLA-DR antigen.
# [2] = system: anti-survivin T-cell response; experiment: T-cell response in vaccinated prostate carcinoma patients (IFN-g ELISPOT, +/-ICS); type: in vivo, human
Sequence,Positive wells/wells tested [%] (CD8+ T cells),Positive donors/donors tested [%] (CD8+ T cells),in vitro binding to HLA-DR (in words) [1],patients with induction of an anti-survivin T-cell response upon vaccination ([2]; among the 16 reacting patients of 19),"patients who reacted to the peptide (IFN-g ELISPOT, +/-ICS) ([2]; of the 19 patients vaccinated)"
AYLVYTDRL (listed as Homo sapiens) [PPAP2C-001],54%,100%,–,–,–
FYISPVNKL (listed as Homo sapiens) [AVL9-001],50%,100%,–,–,–
HYKPTPLYF (listed as Homo sapiens) [SMC4-001],9%,75%,–,–,–
LYQILQGIVF (listed as Homo sapiens) [CDC2-001],28%,88%,–,–,–
NYLLYVSNF (listed as Homo sapiens) [MST1R-001],14%,50%,–,–,–
NYLPFIMEL (listed as Homo sapiens) [UCHL5-001],14%,75%,–,–,–
RFLSGIINF (listed as Homo sapiens) [NUF2-002],4%,50%,–,–,–
SYIDVLPEF (listed as Homo sapiens) [MET-006],22%,63%,–,–,–
SYIIDPLNL (listed as Homo sapiens) [PROM1-001],26%,83%,–,–,–
SYNPLWLRI (listed as Homo sapiens) [ASPM-002],31%,63%,–,–,–
TLGEFLKLDRERAKN (listed as Homo sapiens) [IMA-BIR-002],–,–,"promiscuous binding of IMA-BIR-002 to HLA-DR1, 3, 4 and 11",12 patients,16 patients
TYGNLLDYL (listed as Homo sapiens) [ABL1-001],13%,50%,–,–,–
VWSDVTPLIF (VWSDVTPLTF; listed as Homo sapiens) [MMP11-001],11%,33%,–,–,–
VYGIRLEHF (listed as Homo sapiens) [NUF2-001],25%,100%,–,–,–
VYIEKNDKL (listed as Homo sapiens) [ERBB3-001],15%,83%,–,–,–
YYNAAGFNKL (listed as Homo sapiens) [UQCRB-001],38%,100%,–,–,–
